# Assay results published in patent US20260216347A1, “Substituted Imidazo-Based Compounds as Ligand Directed Degraders of IRAK3” (Celgene Corporation, priority 2022, published 2026).
# Molecular target: T1, IRAK3-ePL (Homo sapiens, UniProt Q9Y616)
# T1 construct: expressed in transfected cells; host or cells: 293T CRBN OE/GSPT1 G575N KI cells, lentiviral transduction, puromycin selected
# Test: IRAK3-ePL overexpressing degradation assay (InCELL Hunter luminescence, dose response)
# Format: cell-based
# Conditions: for IRAK3 ePL degradation Ymin: lowest percentage of target protein remaining following compound treatment; for DC50: read-out: IRAK3 ePL degradation EC50
# How it was run: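 Lenti-X 293T CRBN/GSPT1 G575N cells stably expressing IRAK3-ePL (5,000/well) treated overnight at 37° C with 10-point 3-fold dilutions from 10 μM, 0.2% DMSO. InCELL Hunter luminescence, background subtracted using Ataluren wells and normalized to DMSO; EC50 from four-parameter logistic fit.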
SMILES,IRAK3 ePL degradation Ymin [%],DC50 [nM]
"Cc1cc(-c2cnc(Nc3cnn([C@H]4CC[C@H](CCN5CCN(c6ccc([C@@]7(C)CCC(=O)NC7=O)cc6)CC5)CC4)c3)c3nccn23)c(F)cc1F [Compound 81, (R)-3-(4-(4-(2-((trans)-4-(4-((5-(2,4-difluoro-5-methylphenyl)imidazo[1,2-a]pyrazin-8-yl)amino)-1H-pyrazol-1-yl)cyclohexyl)ethyl)piperazin-1-yl)phenyl)-3-methylpiperidine-2,6-dione]",27,3.3
"Cc1cc(-c2cnc(Nc3cnn(C4CCN(CC(=O)N5CCN(c6ccc7c(c6)C(=O)N(C6CCC(=O)NC6=O)C7=O)CC5)CC4)c3)c3nccn23)c(F)cc1F (stereo not drawn) [Compound 6, 5-(4-(2-(4-(4-((5-(2,4-difluoro-5-methylphenyl)imidazo[1,2-a]pyrazin-8-yl)amino)-1H-pyrazol-1-yl)piperidin-1-yl)acetyl)piperazin-1-yl)-2-(2,6-dioxopiperidin-3-yl)isoindoline-1,3-dione]",17,22
"Cc1cccc(-c2cnc(Nc3cnn(C4CCN(CCCN5CCN(c6ccc(C7CCC(=O)NC7=O)cc6)CC5)CC4)c3)c3nccn23)c1 (stereo not drawn) [Compound 4, 3-(4-(4-(3-(4-(4-((5-(m-tolyl)imidazo[1,2-a]pyrazin-8-yl)amino)-1H-pyrazol-1-yl)piperidin-1-yl)propyl)piperazin-1-yl)phenyl) piperidine-2,6-dione]",13,4
"Cc1cc(-c2cnc(Nc3cnn(C4CCN(CC(=O)N5CCN(c6ccc7c(c6)C(=O)N(C6CCC(=O)NC6=O)C7)CC5)CC4)c3)c3nccn23)c(F)cc1F (stereo not drawn) [Compound 18, 3-(6-(4-(2-(4-(4-((5-(2,4-difluoro-5-methylphenyl)imidazo[1,2-a]pyrazin-8-yl)amino)-1H-pyrazol-1-yl)piperidin-1-yl)acetyl)piperazin-1-yl)-1-oxoisoindolin-2-yl)piperidine-2,6-dione]",22,9.7
"Cc1cccc(-c2cnc(Nc3cnn(C4CCN(CCCCN5CCN(c6ccc(C7CCC(=O)NC7=O)cc6)CC5)CC4)c3)c3nccn23)c1 (stereo not drawn) [Compound 3, 3-(4-(4-(4-(4-(4-((5-(m-tolyl)imidazo[1,2-a]pyrazin-8-yl)amino)-1H-pyrazol-1-yl)piperidin-1-yl)butyl)piperazin-1-yl)phenyl) piperidine-2,6-dione]",15,3
"Cc1cc(-c2cnc(Nc3cnn(C4CCN(CC(=O)N5CCN(c6ccc7c(c6)CN(C6CCC(=O)NC6=O)C7=O)CC5)CC4)c3)c3nccn23)c(F)cc1F (stereo not drawn) [Compound 10, 3-(5-(4-(2-(4-(4-((5-(2,4-difluoro-5-methylphenyl)imidazo[1,2-a]pyrazin-8-yl)amino)-1H-pyrazol-1-yl)piperidin-1-yl)acetyl)piperazin-1-yl)-1-oxoisoindolin-2-yl)piperidine-2,6-dione]",22,19
"Cc1cccc(-c2cnc(Nc3cnn(C4CCN(CC(=O)N5CCN(c6ccc7c(c6)C(=O)N(C6CCC(=O)NC6=O)C7=O)CC5)CC4)c3)c3nccn23)c1 (stereo not drawn) [Compound 1, 2-(2,6-dioxopiperidin-3-yl)-5-(4-(2-(4-(4-((5-(m-tolyl)imidazo[1,2-a]pyrazin-8-yl)amino)-1H-pyrazol-1-yl)piperidin-1-yl)acetyl)piperazin-1-yl)isoindoline-1,3-dione]",31,39
"O=C1CCC(c2ccc(N3CCN(CCN4CCC(n5cc(Nc6ncc(-c7ccccc7F)n7ccnc67)cn5)CC4)CC3)cc2)C(=O)N1 (stereo not drawn) [Compound 75, 3-(4-(4-(2-(4-(4-((5-(2-fluorophenyl)imidazo [1,2-a]pyrazin-8-yl)amino)-1H-pyrazol-1-yl)piperidin-1-yl)ethyl)piperazin-1-yl)phenyl) piperidine-2,6-dione]",25,4.1
"Cc1cc(-c2cnc(Nc3cnn([C@H]4CC[C@@H](CN5CCN(c6ccc(C7CCC(=O)NC7=O)cc6)CC5)CC4)c3)c3nccn23)c(F)cc1F (relative stereo) [Compound 71, 3-(4-(4-(((cis)-4-(4-((5-(2,4-difluoro-5-methylphenyl)imidazo[1,2-a]pyrazin-8-yl)amino)-1H-pyrazol-1-yl)cyclohexyl)methyl)piperazin-1-yl)phenyl) piperidine-2,6-dione]",29,1.7
"Cc1cccc(-c2cnc(Nc3cnn(C4CCN(CC(=O)N5CCN(c6ccc7c(c6)CN(C6CCC(=O)NC6=O)C7=O)CC5)CC4)c3)c3nccn23)c1 (stereo not drawn) [Compound 19, 3-(1-oxo-5-(4-(2-(4-(4-((5-(m-tolyl)imidazo[1,2-a]pyrazin-8-yl)amino)-1H-pyrazol-1-yl)piperidin-1-yl)acetyl)piperazin-1-yl)isoindolin-2-yl)piperidine-2,6-dione]",18,12
"Cc1cc(-c2cnc(Nc3cnn(C4CCN(CCN5CCN(c6ccc([C@]7(C)CCC(=O)NC7=O)cc6)CC5)CC4)c3)c3nccn23)c(F)cc1F [Compound 76, (S)-3-(4-(4-(2-(4-(4-((5-(2,4-difluoro-5-methylphenyl)imdazo [1,2-a]pyrazin-8-yl)amino)-1H-pyrazol-1-yl)piperidin-1-yl)ethyl)piperazin-1-yl)phenyl)-3-methylpiperidine-2,6-dione]",78,–

# Now from value to compound:
IRAK3 ePL degradation Ymin [%],DC50 [nM],SMILES
14,0.6,"Cc1cc(-c2cnc(Nc3cnn(C4CCN(CCN5CCN(c6ccc(C7CCC(=O)NC7=O)cc6)C[C@@H]5C)CC4)c3)c3nccn23)c(F)cc1F (stereo partly drawn) [Compound 7, 3-(4-((S)-4-(2-(4-(4-((5-(2,4-difluoro-5-methylphenyl)imdazo [1,2-a]pyrazin-8-yl)amino)-1H-pyrazol-1-yl)piperidin-1-yl)ethyl)-3-methylpiperazin-1-yl)phenyl) piperidine-2,6-dione]"
13,0.86,"Cc1cc(-c2cnc(Nc3cnn(C4CCN(CCN5[C@H](C)CN(c6ccc(C7CCC(=O)NC7=O)cc6)C[C@@H]5C)CC4)c3)c3nccn23)c(F)cc1F (stereo partly drawn) [Compound 13, 3-(4-((3S,5R)-4-(2-(4-(4-((5-(2,4-difluoro-5-methylphenyl)imdazo [1,2-a]pyrazin-8-yl)amino)-1H-pyrazol-1-yl)piperidin-1-yl)ethyl)-3,5-dimethylpiperazin-1-yl)phenyl) piperidine-2,6-dione]"
24,0.51,"Cc1cc(-c2cnc(Nc3cnn([C@H]4CCN(CCN5CCN(c6ccc(C7CCC(=O)NC7=O)cc6)CC5)C[C@@H]4F)c3)c3nccn23)c(F)cc1F (stereo partly drawn) [Compound 72, 3-(4-(4-(2-((3S,4S)-4-(4-((5-(2,4-difluoro-5-methylphenyl)imdazo [1,2-a]pyrazin-8-yl)amino)-1H-pyrazol-1-yl)-3-fluoropiperidin-1-yl)ethyl)piperazin-1-yl)phenyl) piperidine-2,6-dione]"
26,1,"O=C1CCC(c2ccc(N3CCN(CCN4CCC(n5cc(Nc6ncc(-c7ccc(F)cc7)n7ccnc67)cn5)CC4)CC3)cc2)C(=O)N1 (stereo not drawn) [Compound 74, 3-(4-(4-(2-(4-(4-((5-(4-fluorophenyl)imidazo [1,2-a]pyrazin-8-yl)amino)-1H-pyrazol-1-yl)piperidin-1-yl)ethyl)piperazin-1-yl)phenyl) piperidine-2,6-dione]"
15,1.1,"Cc1cc(-c2cnc(Nc3cnn([C@H]4CC[C@@H](CCN5CCN(c6ccc(C7CCC(=O)NC7=O)cc6)CC5)CC4)c3)c3nccn23)c(F)cc1F (stereo partly drawn) [Compound 14, 3-(4-(4-(2-((cis)-4-(4-((5-(2,4-difluoro-5-methylphenyl)imidazo[1,2-a]pyrazin-8-yl)amino)-1H-pyrazol-1-yl)cyclohexyl)ethyl)piperazin-1-yl)phenyl) piperidine-2,6-dione]"
24,0.63,"Cc1cc(-c2cnc(Nc3cnn([C@H]4CCN(CCN5CCN(c6ccc(C7CCC(=O)NC7=O)cc6)C[C@H]5C)[C@@H](C)C4)c3)c3nccn23)c(F)cc1F (stereo partly drawn) [Compound 35, 3-(4-((R)-4-(2-((2S,4S)-4-(4-((5-(2,4-difluoro-5-methylphenyl)imdazo [1,2-a]pyrazin-8-yl)amino)-1H-pyrazol-1-yl)-2-methylpiperidin-1-yl)ethyl)-3-methylpiperazin-1-yl)phenyl) piperidine-2,6-dione]"
14,0.51,"Cc1cc(-c2cnc(Nc3cnn(C4CCN(CC(=O)N5CCN(c6ccc(C7CCC(=O)NC7=O)cc6)CC5)CC4)c3)c3nccn23)c(F)cc1F (stereo not drawn) [Compound 17, 3-(4-(4-(2-(4-(4-((5-(2,4-difluoro-5-methylphenyl)imidazo[1,2-a]pyrazin-8-yl)amino)-1H-pyrazol-1-yl)piperidin-1-yl)acetyl)piperazin-1-yl)phenyl)piperidine-2,6-dione]"
27,1.1,"Cc1cc(-c2cnc(Nc3cnn(C4CCN(CCN5CCN(c6ccc([C@@]7(C)CCC(=O)NC7=O)cc6)CC5)CC4)c3)c3nccn23)c(F)cc1F [Compound 77, (R)-3-(4-(4-(2-(4-(4-((5-(2,4-difluoro-5-methylphenyl)imdazo [1,2-a]pyrazin-8-yl)amino)-1H-pyrazol-1-yl)piperidin-1-yl)ethyl)piperazin-1-yl)phenyl)-3-methylpiperidine-2,6-dione]"
14,0.5,"Cc1cc(-c2cnc(Nc3cnn(C4CCN(CCN5CCN(c6ccc(C7CCC(=O)NC7=O)cc6)C[C@H]5C)CC4)c3)c3nccn23)c(F)cc1F (stereo partly drawn) [Compound 9, 3-(4-((R)-4-(2-(4-(4-((5-(2,4-difluoro-5-methylphenyl)imdazo [1,2-a]pyrazin-8-yl)amino)-1H-pyrazol-1-yl)piperidin-1-yl)ethyl)-3-methylpiperazin-1-yl)phenyl) piperidine-2,6-dione]"
